Experimental data from patent EP0357495A2, “3'Azido-3'-deoxythymidine (AZT) derivatives active against the AIDS virus” (IRE-CELLTARG S.A., priority 1988, dated 1990).

Tests used:
[1] = tested on: virus HIV-1 (souche HTLV-IIIB); experiment: viral antigen assay in HIV-infected human peripheral blood lymphocytes; format: cell-based; conditions: day 14 of culture
Description: Les lymphocytes ont été extraits d'un concentré plaquettaire par séparation sur gradient de Ficoll et élimination des adhérentes. Après 3 jours de stimulation par la phytohémaglutinine, ils ont été transférés dans un milieu additionné d'interleukine-2 (IL-2) est infectés par le virus HIV-1 (souche HTLV-IIIB). L'AZT et son dérivé 5′ hémisuccinate à différentes concentrations ont été rajoutés aux cellules au moment de l'infection.
Trois jours après l'infection, le milieu a été remplacé par du milieu frais additionné d'IL-2, contenant les produits aux concentrations désirées pour la moitié des cellules, et ne contenant plus de produit pour l'autre moitié. Ensuite, le milieu des cellules a été remplacé à moitié par du milieu frais additionné d'IL-2, contenant ou non les produits aux concentrations désirées, tous les 3 à 4 jours.
La multiplication du virus a été suivie par dosage des antigènes viraux dans les surnageants de culture (Innotest HIV-Organon Teknika).

[2] = tested on: cellules MT4; experiment: cytotoxicity on non-infected MT4 cells (MTT method); format: cell-based
Experimental: Les produits (AZT, AZT-5′ hémisuccinyl et AZT 5′-leucyl) à différentes concentrations ont été mis en présence de cellules MT4 (4 X 10⁴ cellules par puits de microtray) infectées ou non avec 100 CCID₅₀ de virus HIV-1 (souche HTLV-IIIB). La CCID₅₀ représente la quantité de virus à rajouter pour obtenir une infection de 50 % des cellules (dose infectieuse de cellules en culture 50).
Après cinq jours d'incubation à 37°C, le nombre de cellules vivantes a été déterminé par la méthode au MTT, basée sur la réduction par les cellules vivantes du 3′-(4, 5-diméthylthiazol-2-yl)-2,5-diphényltétrazoliumbromide, jaune, en formazan, bleu. L'activité antivirale et la cytotoxicité sont exprimées sous forme de ED₅₀ et de CD₅₀. La CD₅₀ représente la dose qui tue 50 % des cellules non infectées et la ED₅₀ représente la dose qui protège 50 % des cellules de l'infection virale.
En effet l'AZT entre en compétition avec la thymidine au niveau des enzymes de phosphorylation qui vont le transformer en AZT triphosphate (AZT TP) qui est la forme active du produit. Un excès de thymidine réduit donc très fortement l'activité de l'AZT, ce qui se traduit par une ED₅₀ plus élevée. Par conséquent, si le dérivé de l'AZT doit son activité à la libération d'AZT qui à son tour est phosphorylé en AZT TP, un excès de thymidine aura également pour effet d'élever la ED₅₀ du dérivé. La thymidine étant cytotoxique à la concentration utilisée, il est nécessaire de rajouter de la 2′déoxycytidine pour empêcher cette toxicité.
Les protocoles expérimentaux sont ceux décrits à l'exemple 9 3.1) et 9 3).

[3] = tested on: virus MSV Moloney sarcoma virus; experiment: in vivo activity in MSV-infected NMRI mice (survival, tumour appearance); design: species or system souris NMRI
Experimental: L'AZT et ses dérivés selon l'invention ont été testés in vivo chez la souris NMRI (souriceaux de 2 jours) infectée par le virus MSV Moloney sarcoma virus). La drogue est adminitrée i.p. pendant 5 jours dans un volume de 25 µl/g de poids corporel. Le virus est inoculé dans la cuisse gauche de l'animal deux heures après la première administration de drogue. Les animaux sont contrôlés tous les jours selon trois critères : survie, apparition de la tumeur et poids (toxicité) pendant 50 jours. Les résultats sont repris au tableau 7 et dans les figures 8 à 11. [formula]
On entend par temps médian de survie le temps où la moitié des souris sont encore vivantes. [formula] Tableau 7

[4] = AZT-5′ hémisuccinyl 6.8 mg/kg/jour i.p. 5 days
[5] = AZT-5′ hémisuccinyl 34 mg/kg/jour i.p. 5 days
[6] = AZT-5′ hémisuccinyl 170 mg/kg/jour i.p. 5 days

In the case of `Cc1cn([C@H]2C[C@H](N=[N+]=[N-])[C@@H](COC(=O)CCC(=O)O)O2)c(=O)[nH]c1=O` [AZT 5′hémisuccinyl, 5′-hémisuccinyl-3′-azido-3′-déoxythymidine], the ED₅₀ ([1]; durée d'administration 3 jours) is reported as 0.078 µM, the ED₅₀ ([1]; durée d'administration 14 jours) is reported as 0.057 µM and the “toxicité (compared with AZT, in words)” value ([2]; comparison with AZT) is reported as “considérablement inférieure”. It also gave a CD₅₀ ([2]; tableau 2, non-infected MT4 cells, 5 days at 37°C, dose that kills 50 % of cells) of 196 µM, a CD₅₀ ([2]; tableau 4, MT-4, with thymidine (250µM) + 2′déoxy-cytidine (500 µM)) of 362 µM and a CD₅₀ ([2]; tableau 4, MT-4, without thymidine / 2′déoxycytidine) of 295 µM. The “% ILS” value [3, 4] was 20.2%, the “% ITL” value [3, 4] was 52.4% and the “Temps moyen d'apparition de la tumeur” value [3, 4] was 7.3 jours. The “Temps moyen de survie” value [3, 4] was 11.5 jours, the “Temps médian d'apparition de la tumeur” value [3, 4] was 6.8 jours and the “Temps médian de survie” value [3, 4] was 11.0 jours. The “% ILS” value [3, 5] was over 446%, the “% ITL” value [3, 5] was 145% and the “Temps moyen d'apparition de la tumeur” value [3, 5] was over 25.5 jours. The “Temps moyen de survie” value [3, 5] was over 41 jours, the “Temps médian d'apparition de la tumeur” value [3, 5] was 11 jours and the “Temps médian de survie” value [3, 5] was over 50 jours. For the same molecule, the “% ILS” value [3, 6] was 42.1%, the “% ITL” value [3, 6] was 257% and the “Temps moyen d'apparition de la tumeur” value [3, 6] was over 23 jours. The “Temps moyen de survie” value [3, 6] was over 22.7 jours, the “Temps médian d'apparition de la tumeur” value [3, 6] was 16 jours and the “Temps médian de survie” value [3, 6] was 13 jours.
